Measured values reported in patent US20240336981A1, “PANELS AND METHODS FOR DIAGNOSING AND TREATING LUNG CANCER” (The Broad Institute, Inc., priority 2021, published 2024).

Legend:
PD-L1 = experiment: Immunofluorescence staining with anti-PD-L1 antibody; assay type: cell-based; details: tivantinib-treated cells vs controls; all subtypes; quantified with ImageJ
Description: The following antibody was used for immunofluorescence staining—Recombinant Alexa Fluor® 488 Anti-PD-L1 antibody (ab209959). […] Cells were then fixed in 4% paraformaldehyde for 10 min and washed twice in cold PBS. Fluor® 488 Anti-PD-L1 antibody was added for 1 hr incubation in a light protected environment at room temperature followed by staining nuclei with DAPI. Fluorescence images were captured using Invitrogen™ EVOS™ FL Imaging System by Thermo Fisher Scientific. The fluorescent increase was further quantified using ImageJ software.

[1] = system: lung adenocarcinoma (LUAD) cell lines; experiment: Proliferation assay (IncuCyte confluency); assay type: cell-based; details: for proliferation (response) of S3 cell lines compared to the S4 and unassigned cell lines: S3 lines HCC78, HCC827, NCIH1975, NCIH1838, 4 days
Source text: lung adenocarcinoma (LUAD) cell lines were used (HCC78, HCC827, NCIH1975, NCIH1838, NCIH1395, NCIH1833, NCIH1755, ABC1, CALU3). Tests for mycoplasma contamination were negative. Cells were maintained in RPMI 1640 medium supplemented with 10% fetal bovine serum and 1% penicillin-streptomycin.
The media and drugs were replenished every 2-3 days. Continuous cell growth was monitored in 96-well plates every 3 hr for 4 days using the IncuCyte Kinetic Imaging System. The relative confluency was analyzed using IncuCyte software. The reported response percentage for each cell line was calculated as the percent of confluency compared to their DMSO treated counterpart. Proliferation assays were repeated 4 times.

[2] = system: tumor-bearing animal models such as breast, colon, lung cancers, and hepatocellular carcinoma; details: in vivo; cited from earlier work
EGFR = EGFR (Homo sapiens, UniProt P00533); details: cited from earlier work
HER-3 = HER-3 (Homo sapiens, UniProt P21860); details: cited from earlier work
non-CDK kinases = details: with the exception of GSK3beta; cited from earlier work
CDK3 and CDK7 = details: cited from earlier work
BLK = BLK (Homo sapiens, UniProt P51451); details: in vitro; cited from earlier work
HER4 = HER4 (Homo sapiens, UniProt Q15303); details: in vitro; cited from earlier work
HER2 = HER2 (Homo sapiens, UniProt P04626); details: in vitro; cited from earlier work
[3] = system: mutant forms of EGFR (T790M, L858R, and exon 19 deletion); details: exon 19 deletion vs wild-type; cited from earlier work

BLK, sequence (P51451 whole entry): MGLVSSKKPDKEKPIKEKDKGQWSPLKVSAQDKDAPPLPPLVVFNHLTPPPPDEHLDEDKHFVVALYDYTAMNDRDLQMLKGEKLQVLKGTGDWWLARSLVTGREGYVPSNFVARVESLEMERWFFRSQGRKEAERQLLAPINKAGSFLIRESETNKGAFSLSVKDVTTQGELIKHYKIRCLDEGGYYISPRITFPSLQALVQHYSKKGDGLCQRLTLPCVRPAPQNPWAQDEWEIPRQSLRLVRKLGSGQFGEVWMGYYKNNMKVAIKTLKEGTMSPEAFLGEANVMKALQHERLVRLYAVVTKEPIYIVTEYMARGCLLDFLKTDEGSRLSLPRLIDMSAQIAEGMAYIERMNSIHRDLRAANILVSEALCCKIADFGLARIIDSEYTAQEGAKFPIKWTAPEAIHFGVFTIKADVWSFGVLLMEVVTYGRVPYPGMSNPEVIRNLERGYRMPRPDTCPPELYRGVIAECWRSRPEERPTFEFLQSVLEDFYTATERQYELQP
HER4, sequence (Q15303 26-1308): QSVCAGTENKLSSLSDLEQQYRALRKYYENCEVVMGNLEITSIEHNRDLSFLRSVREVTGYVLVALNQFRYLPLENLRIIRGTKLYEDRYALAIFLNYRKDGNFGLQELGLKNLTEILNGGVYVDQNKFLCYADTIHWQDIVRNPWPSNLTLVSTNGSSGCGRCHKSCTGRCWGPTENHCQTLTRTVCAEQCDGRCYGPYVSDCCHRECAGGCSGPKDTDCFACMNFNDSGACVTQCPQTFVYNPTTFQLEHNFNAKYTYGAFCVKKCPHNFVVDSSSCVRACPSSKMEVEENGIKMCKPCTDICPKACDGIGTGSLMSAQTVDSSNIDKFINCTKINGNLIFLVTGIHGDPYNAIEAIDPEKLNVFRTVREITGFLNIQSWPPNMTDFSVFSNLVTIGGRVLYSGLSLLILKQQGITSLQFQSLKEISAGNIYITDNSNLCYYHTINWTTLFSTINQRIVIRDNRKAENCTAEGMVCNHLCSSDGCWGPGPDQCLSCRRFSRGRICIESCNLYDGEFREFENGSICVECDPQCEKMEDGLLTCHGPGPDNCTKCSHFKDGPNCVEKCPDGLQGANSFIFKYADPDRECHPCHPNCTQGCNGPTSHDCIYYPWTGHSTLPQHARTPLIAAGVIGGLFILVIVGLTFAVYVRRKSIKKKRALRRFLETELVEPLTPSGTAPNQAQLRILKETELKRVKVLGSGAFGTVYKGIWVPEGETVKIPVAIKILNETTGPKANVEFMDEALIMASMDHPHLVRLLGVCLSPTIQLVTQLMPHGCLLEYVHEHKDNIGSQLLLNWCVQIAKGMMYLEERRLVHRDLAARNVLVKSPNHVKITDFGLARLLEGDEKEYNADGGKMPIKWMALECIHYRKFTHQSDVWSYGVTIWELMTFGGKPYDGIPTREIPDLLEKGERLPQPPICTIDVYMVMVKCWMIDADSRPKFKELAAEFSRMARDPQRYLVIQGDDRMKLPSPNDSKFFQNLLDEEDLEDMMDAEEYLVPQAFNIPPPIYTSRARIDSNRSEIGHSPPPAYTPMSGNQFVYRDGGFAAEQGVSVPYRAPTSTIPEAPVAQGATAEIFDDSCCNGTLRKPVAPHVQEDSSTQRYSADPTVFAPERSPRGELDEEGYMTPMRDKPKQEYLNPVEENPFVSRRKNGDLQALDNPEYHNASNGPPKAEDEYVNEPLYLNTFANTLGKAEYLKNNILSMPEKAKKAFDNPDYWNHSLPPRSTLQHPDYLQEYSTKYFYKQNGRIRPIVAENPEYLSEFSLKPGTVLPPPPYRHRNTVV
HER2, sequence (P04626 23-1255): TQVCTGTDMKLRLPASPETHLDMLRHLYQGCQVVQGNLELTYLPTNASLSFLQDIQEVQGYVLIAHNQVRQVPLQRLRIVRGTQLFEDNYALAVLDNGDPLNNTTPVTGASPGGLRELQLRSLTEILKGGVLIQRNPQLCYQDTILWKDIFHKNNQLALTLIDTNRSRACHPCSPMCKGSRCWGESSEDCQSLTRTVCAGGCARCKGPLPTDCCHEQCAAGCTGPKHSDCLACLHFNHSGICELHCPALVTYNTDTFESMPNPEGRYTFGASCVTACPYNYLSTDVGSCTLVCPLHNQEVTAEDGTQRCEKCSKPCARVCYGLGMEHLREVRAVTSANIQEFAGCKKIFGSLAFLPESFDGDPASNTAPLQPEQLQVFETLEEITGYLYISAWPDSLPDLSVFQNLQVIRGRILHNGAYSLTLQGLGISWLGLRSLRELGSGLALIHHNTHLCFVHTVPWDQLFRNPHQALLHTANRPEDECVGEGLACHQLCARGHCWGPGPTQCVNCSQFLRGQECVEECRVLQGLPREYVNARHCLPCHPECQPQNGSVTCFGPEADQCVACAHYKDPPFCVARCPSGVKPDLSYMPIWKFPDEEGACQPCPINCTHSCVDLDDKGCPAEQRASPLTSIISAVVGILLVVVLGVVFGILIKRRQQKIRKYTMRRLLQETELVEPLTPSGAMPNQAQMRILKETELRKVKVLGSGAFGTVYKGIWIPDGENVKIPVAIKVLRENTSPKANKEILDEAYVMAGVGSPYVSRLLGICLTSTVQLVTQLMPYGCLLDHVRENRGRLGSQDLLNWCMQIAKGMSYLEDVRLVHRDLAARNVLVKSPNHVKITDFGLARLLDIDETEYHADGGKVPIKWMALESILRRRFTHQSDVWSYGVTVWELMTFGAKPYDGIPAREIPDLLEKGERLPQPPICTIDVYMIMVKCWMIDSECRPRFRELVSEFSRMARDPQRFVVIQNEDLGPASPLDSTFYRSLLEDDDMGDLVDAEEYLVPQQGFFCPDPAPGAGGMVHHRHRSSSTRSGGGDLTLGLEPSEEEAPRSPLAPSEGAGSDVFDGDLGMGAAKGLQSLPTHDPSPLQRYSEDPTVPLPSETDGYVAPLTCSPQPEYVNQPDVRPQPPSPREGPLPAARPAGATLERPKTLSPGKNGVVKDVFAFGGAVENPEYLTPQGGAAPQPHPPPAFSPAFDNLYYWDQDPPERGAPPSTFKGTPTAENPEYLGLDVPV
EGFR, sequence (P00533 25-1210): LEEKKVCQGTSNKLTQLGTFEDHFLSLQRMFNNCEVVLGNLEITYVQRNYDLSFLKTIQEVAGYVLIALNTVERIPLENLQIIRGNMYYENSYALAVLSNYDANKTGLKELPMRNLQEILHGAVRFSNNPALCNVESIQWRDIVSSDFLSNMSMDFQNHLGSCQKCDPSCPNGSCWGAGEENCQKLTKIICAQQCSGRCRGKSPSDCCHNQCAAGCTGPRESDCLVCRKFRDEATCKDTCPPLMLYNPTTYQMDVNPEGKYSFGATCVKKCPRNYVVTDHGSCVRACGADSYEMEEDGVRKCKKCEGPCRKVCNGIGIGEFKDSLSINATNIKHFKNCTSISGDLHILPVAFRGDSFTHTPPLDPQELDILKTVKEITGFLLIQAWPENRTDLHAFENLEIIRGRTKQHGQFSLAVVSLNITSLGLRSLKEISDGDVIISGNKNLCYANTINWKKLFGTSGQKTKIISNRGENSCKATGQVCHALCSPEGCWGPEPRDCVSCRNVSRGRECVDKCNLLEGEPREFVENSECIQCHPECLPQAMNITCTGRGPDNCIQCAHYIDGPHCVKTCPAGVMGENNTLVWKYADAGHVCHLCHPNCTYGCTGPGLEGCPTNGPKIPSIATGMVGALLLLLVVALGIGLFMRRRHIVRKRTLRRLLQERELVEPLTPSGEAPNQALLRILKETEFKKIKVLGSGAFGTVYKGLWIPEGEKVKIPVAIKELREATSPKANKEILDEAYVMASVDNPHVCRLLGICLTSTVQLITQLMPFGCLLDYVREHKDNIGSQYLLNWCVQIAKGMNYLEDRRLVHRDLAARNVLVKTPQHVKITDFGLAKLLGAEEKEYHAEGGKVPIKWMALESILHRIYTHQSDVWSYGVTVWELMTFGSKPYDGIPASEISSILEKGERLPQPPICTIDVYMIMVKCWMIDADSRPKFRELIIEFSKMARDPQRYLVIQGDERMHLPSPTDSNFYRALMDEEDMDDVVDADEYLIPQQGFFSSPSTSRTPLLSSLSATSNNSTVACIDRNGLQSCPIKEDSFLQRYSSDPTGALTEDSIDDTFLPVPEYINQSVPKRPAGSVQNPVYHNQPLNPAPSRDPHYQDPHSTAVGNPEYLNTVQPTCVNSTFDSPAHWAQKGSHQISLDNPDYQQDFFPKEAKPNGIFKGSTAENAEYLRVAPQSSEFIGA

With `O=C1NC(=O)[C@@H](c2cn3c4c(cccc24)CCC3)[C@@H]1c1c[nH]c2ccccc12` [Tivantinib] the “PD-L1 levels in response to c-MET inhibition” value (PD-L1) was “significant increase” and the “response of S3 compared to the other assigned groups” value ([1]; Tivantinib 3 μM, 4-day proliferation assay, confluency vs DMSO) was “significantly increased response”.
For `Cc1cccc(-c2nn3c(c2-c2ccnc4ccc(C(N)=O)cc24)CCC3)n1` [Galunisertib], the antitumor activity [2] is listed as “antitumor activity”.
In the case of `CC(=O)c1c(C)c2cnc(Nc3ccc(N4CCNCC4)cn3)nc2n(C2CCCC2)c1=O` [Palbociclib], the “proliferation (response) of S3 cell lines compared to the S4 and unassigned cell lines” value ([1]; Palbociclib 11 nM (CDK4 concentration), confluency vs DMSO) is reported as “significantly lower proliferation (higher response)” and the “proliferation at higher doses” value ([1]; higher doses of palbociclib (CDK4/6 concentration 16 nM), all cell lines) is reported as “inhibited proliferation in all cell lines”.
For `CCNc1cc(N[C@H]2CC[C@H](O)CC2)nc(Nc2ccc3c(ccn3Cc3ccccc3)c2)n1` [CINK4], the “proliferation (response) of S3 cell lines compared to the S4 and unassigned cell lines” value ([1]; CDK4/6 Inhibitor IV 1.5 μM (CDK4 specific concentration), confluency vs DMSO) was “significantly lower proliferation (higher response)”.
For `CNC(=O)c1ccc(-c2cnc3ncc(Cc4ccc5ncccc5c4)n3n2)cc1F` [Capmatinib], the “activity against EGFR” value (EGFR) is given as “ATP-competitive small molecule. Targets - c-Met. Little activity against EGFR and HER- 3” and the “activity against HER-3” value (HER-3) is given as “ATP-competitive small molecule. Targets - c-Met. Little activity against EGFR and HER- 3”.
In the case of `O=C(NC1CCNCC1)c1n[nH]cc1NC(=O)c1c(Cl)cccc1Cl` [AT7519], the “activity against non-CDK kinases tested” value (non-CDK kinases) is listed as “inactive” and the “potency against other CDKs tested” value (CDK3 and CDK7) is listed as “lower potency”.
For `C=CC(=O)Nc1cc(Nc2ncc(C(=O)OC(C)C)c(-c3cn(C)c4ccccc34)n2)c(OC)cc1N(C)CCN(C)C` [Mobocertinib], the IC50 (BLK) is listed as under 2 nM, the IC50 (HER4) is listed as under 2 nM and the IC50 (HER2) is listed as under 2 nM.
In the case of `C=CC(=O)Nc1cc(Nc2nccc(-c3cn(C)c4ccccc34)n2)c(OC)cc1N(C)CCN(C)C` [Osimertinib], the “concentrations for binding mutant EGFR lower than wild-type” value [3] is given as “approximately 9 fold”.
